The values below come from PMC8838936, “Simultaneous Determination of Seven Lipophilic and Hydrophilic Components in Salvia miltiorrhiza Bunge by LC-MS/MS Method and Its Application to a Transport Study in a Blood-Brain-Barrier Cell Model” (Molecules, 2022).

A short description of data set [1]: Transport study in a BBB cell model (bidirectional transwell permeability). In kind it is in vitro ADME, Human. The note with it: human; for efflux ratio at 120 min: ER = Papp (BL-AP)/Papp (AP-BL), BBB cell model; for Papp B→A at 120 min: hBMEC monolayer on transwell, basolateral-to-apical, within 120 min, 37 °C, Mean ± SD, n = 3. The procedure:
(§1) The hBMECs cells were seeded at a density of 3 × 10^5 cells per well on the transwell plates in EMC. Apical side volumes were 0.5 mL, and the medium was changed every day. Basal side volumes were 1.5 mL, and the medium was changed every other day. The medium was changed until confluent monolayers were formed. […] TEER provides information on ion current resistance across cell monolayers related to the integrity of tight junctions between cells. When the TEER reached the maximum value, the cell monolayer was used for the transport assay.
(§2) The permeability experiments were carried out bi-directionally, with working solutions containing one test component, TSI (1.25 μg/mL), DTSI (0.15 μg/mL), CTS (1.25 μg/mL), CFA (10 μg/mL), PAL (10 μg/mL), and PCTA (20 μg/mL). Aliquots of the […] compartment were collected after several time points (15, 30, 60, and 120 min) and replaced with drug-free assay buffer. The transwell plates were incubated on an orbital shaker at 37 °C for the entire experimental time. All experiments were performed in triplicate, and withdrawn samples were stored in −80 °C fridge before LC-MS/MS analysis.
(§3) For the BBB cell model, the apparent permeability coefficient, Papp in apical-to-basolateral (AP-BL) or basolateral-to-apical (BL-AP) direction, and efflux rate of each component were subsequently calculated according to the following equation: Papp = {dQ/dt} × {1/ (A × C0)},(1) where Q is the accumulation quantity of the compound in the receiver side (μg), dQ /dt is the rate of appearance of the compound in the receiver side (μg /s), C0 is the initial concentration in the donor side […], and A is the surface area of the membrane insert (cm^2). Furthermore, efflux ratios (ER) were calculated according to the following equation: ER = Papp (BL-AP)/Papp (AP-BL),(2) where Papp (BL-AP) and Papp (AP-BL) are the Papp values in the direction basolateral-to-apical and apical-to-basolateral, respectively.

The subject of data set [2] is hBMEC cell monolayer (BBB cell model). The data set is described as above. In kind it is in vitro ADME, Human. To be noted: BBB cell model, within 120 min. The procedure: as §1, §2, §3
Data set [3] deals with endothelial cell monolayers. Further details: method as in PMID 17504224. The note with it: facilitated efflux from the abluminal side to luminal side; cited from earlier work.
A further data set has as its system BBB. Further details: method as in PMID 26683637. The note with it: cited from earlier work.
A short description of data set [4]: Stability of analytes in HBSS (autosampler 24 h; −80 °C 15 days). The format is physicochemical. The note with it: HBSS system. On the procedure:
Stability was evaluated by analyzing LQC, MQC, and HQC concentrations at autosampler for 24 h and −80 °C for 15 days with five replicates. Stability was expressed in terms of accuracy (RE) and coefficient of variation (RSD). The samples were considered stable if accuracy (RE) was within ±15% of the nominal values and precision (RSD) was less than 15%.

The term efflux ratio denotes a quotient of directional permeabilities that is used to spot active efflux. A word on the Papp B→A: it is the apparent permeability from the basolateral to the apical side of a cell layer.

Structures are written as SMILES.

In the case of `O=C(O)/C=C/c1ccc(O)c(O)c1` [CFA, caffeic acid], in data set [1], the efflux ratio at 120 min was determined as 1.05 and the Papp B→A at 120 min was found to be 22.5 ×10⁻⁶ cm/s. Moreover, the “Absorption in the BBB model (class by Papp (AP-BL))” value (from here on “Absorption in the BBB model”) in data set [2] is “easily absorbed”.
Consider `C[C@H]1COC2=C1C(=O)C(=O)c1c2ccc2c1CCCC2(C)C` [CTS, cryptotanshinone], for which, in data set [1], the efflux ratio at 120 min stood at 1.03 and the Papp B→A at 120 min is 5.12 ×10⁻⁶ cm/s. The “Absorption in the BBB model” value in data set [2] is “moderate absorption”. In data set [3], the “Transport of CTS in endothelial cell monolayers” value was “polarized transport”.
`Cc1cccc2c3c(ccc12)C1=C(C(=O)C3=O)[C@@H](C)CO1` [DTS I, dihydrotanshinone I]: in data set [1], the efflux ratio at 120 min came out at 0.779 and the Papp B→A at 120 min is 3.62 ×10⁻⁶ cm/s. In addition, in data set [2], the “Absorption in the BBB model” value is reported as “moderate absorption”.
Taken in the same sequence, the figures for `O=Cc1ccc(O)c(O)c1` [PAL, protocatechuic aldehyde] were 0.805, 12.2 ×10⁻⁶ cm/s and “easily absorbed”.
Take `O=C(O)c1ccc(O)c(O)c1` [PCTA, protocatechuic acid]: in data set [1], the efflux ratio at 120 min was 0.946 and the Papp B→A at 120 min was 41.3 ×10⁻⁶ cm/s. In addition, the “Absorption in the BBB model” value in data set [2] is “easily absorbed”.
With `Cc1coc2c1C(=O)C(=O)c1c-2ccc2c1CCCC2(C)C` [TS IIA, tanshinone IIA], in data set [1], the efflux ratio at 120 min is 0.673 and the Papp B→A at 120 min amounted to 0.0253 ×10⁻⁶ cm/s. Also, the “Absorption in the BBB model” value in data set [2] is “difficult to be absorbed”. Further, in the data set on BBB, the “Effect on disruption of the BBB” value is listed as “suppress disruption of the BBB”.
On to `CCC(C)(C)C(=O)O[C@H]1C[C@@H](C)C=C2C=C[C@H](C)[C@H](CC[C@@H]3C[C@@H](O)CC(=O)O3)[C@H]21` [simvastatin], for which the “Stability in HBSS (in words)” value in data set [4] is recorded as “very unstable”.
